Common to all, as to type: physicochemical
Data set [1] can be described thus: Bulk density method of analysis. As to conditions: about 10 g sample in 25 mL measuring cylinder. The method, then: (§1) The X-Ray powder diffraction was measured by an X-ray powder diffractometer equipped with a Cu-anode (λ=1.54 Angstrom), X-ray source operated at 40 kV, 40 mA and a Ni filter is used to strip K-beta radiation. Two-theta calibration is performed using an NIST SRM 1976, Corundum standard. The sample was analyzed using the following instrument parameters: measuring range=3-45° 20; step width=0.01579°; and measuring time per step=0.11 second. Infra-Red Spectroscopy (FT-IR): FT-IR spectroscopy was carried out with a Perkin Elmer Spectrum 100 series spectrometer. For the production of the KBr compacts approximately 2 mg of sample was powdered with 200 mg of KBr. The spectra were recorded in transmission mode ranging from 3800 to 450 cm^−1. Differential Scanning Calorimetry (DSC): DSC (Differential Scanning calorimetry) measurements were performed with a Differential Scanning calorimeter (Perkin Elmer diamond DSC) at a scan rate of 10° C. per minute. Bulk Density Method of Analysis About 10 g of sample was placed in a 25 mL measuring cylinder and measured the volume using the following formula: Bulk density=Weight of the sample (g)/Volume of the sample (mL) Tap Density Method of Analysis

Data set [2] is described as follows: Tap density method of analysis (Sotax tapping instrument, USP II). As to conditions: about 10 g sample, tapped to constant volume. Here is the method: About 10 g of sample was placed in a 25 mL measuring cylinder and measured the initial volume. The measuring cylinder was kept in a Sotax Tapping instrument (USP II) and measured the volume of the sample every 50 tappings until a constant volume is obtained using the following formula: Tap Density=Weight of the sample (g)/constant Volume of the sample after tapping (mL)

Data set [3] can be described thus: Particle size distribution by laser diffraction (Malvern Master Sizer 2000). As to conditions: 90 volume-percent of particles below this diameter. The text has this: As used herein, “Particle Size Distribution (P.S.D)” means the cumulative volume size distribution of equivalent spherical diameters as determined by laser diffraction in Malvern Master Sizer 2000 equipment or its equivalent. As used herein, DX means that X percent of the particles have a diameter less than a specified diameter D. Thus, a D90 or d(0.9) of less than 300 microns means that 90 volume-percent of the particles in a composition have a diameter less than 300 microns.

Data set [4] in a line: Polymorphic stability on storage in LDPE bag, checked by P-XRD. Here is the method: as §1
Laquinimod sodium crystalline Form A1 was prepared according to the process exemplified in Example 2 and was packed in a self-sealing low-density polyethylene (LDPE) bag. […]

`CCN(C(=O)c1c(O)c2c(Cl)cccc2n(C)c1=O)c1ccccc1.[Na]` [laquinimod sodium crystalline Form A1, N-ethyl-N-phenyl-1,2-dihydro-4-hydroxy-5-chloro-1-methyl-2-oxoquinoline-3-carboxamide sodium] displayed a Bulk density in data set [1] of 0.333 g/mL. Also, in data set [2], the Tapped density was 0.476 g/mL. The “Particle size distribution d(0.9)” value in data set [3] was found to be 26.3 microns. Also, the “Polymorphic stability (maintenance of the original P-XRD pattern)” value in data set [4] (stored 3 months at about 40±2° C., relative humidity about 75±5%) is “retain its polymorphic form”; in data set [4] (stored 6 months at 25±2° C., relative humidity about 60±5%) it was “retain its polymorphic form”.

The values above are taken from patent US8354428B2, “Solid state forms of laquinimod and its sodium salt” (Actavis Group PTC EHF, priority 2008, dated 2013).
